Laboratory results: patent publication US20150374673A1, “Combination Therapy for the Treatment of Nosocomial Pneumonia” (priority 2013, published 2015)
Like-named read-outs stand apart in the source and are kept apart here.

What was measured:
Test in all cases: Initial MIC, microbroth dilution (CLSI), avibactam 4 mg/L
Type in all cases: cell-based
E. faecalis = conditions: Enterococcus faecalis, read-out: MIC
Description: (§1) All MIC determinations including those performed in the checkerboard assay were done in cation-adjusted Mueller-Hinton broth (purchased from Becton Dickinson, Oxford UK). […]

E. cloacae = conditions: Enterobacter cloacae, read-out: MIC
Description: as §1

S. aureus = conditions: Staphylococcus aureus, read-out: MIC
Description: as §1

E. coli = conditions: Escherichia coli, read-out: MIC
Description: as §1

K. pneumoniae = conditions: Klebsiella pneumoniae, read-out: MIC
Description: (§2) All MIC determinations including those performed in the checkerboard assay were done in cation-adjusted Mueller-Hinton broth (purchased from Becton Dickinson, Oxford UK).
(§3) Initial MIC data were determined by microbroth dilution methods as recommended by CLSI (2012b). Checkerboards were made in accordance with the method given by Pillai et. al., ? Antimicrobial Combinations in Antibiotics, LABORATORY MEDICINE (Lorian Ed., 3rd Ed. (2003)) p. 365-440 as per standard microbroth dilution tests but with agents in combination. […] A final avibactam concentration of 4 mg/L was used throughout the study. Antibacterial agents were combined into microtitre plates using the Evolution III liquid handling system.

P. aeruginosa = conditions: Pseudomonas aeruginosa, read-out: MIC
Description: as §2, §3

[1] = isolate 25 E. faecalis Basal MICs
[2] = isolate 26 E. faecalis Basal MICs
[3] = isolate 27 E. faecalis Basal MICs
[4] = isolate 1 E. cloacae Basal MICs
[5] = isolate 2 E. cloacae Derepressed AmpC
[6] = isolate 3 E. cloacae Derepressed AmpC
[7] = isolate 22 S. aureus Basal MICs
[8] = isolate 23 S. aureus Basal MICs, Penicillinase+
[9] = isolate 24 S. aureus Basal MICs, Penicillinase+
[10] = isolate 9 K. pneumoniae Basal MICs
[11] = isolate 11 K. pneumoniae CTX-M-15
[12] = isolate 12 K. pneumoniae SHV-12
[13] = isolate 16 P. aeruginosa Basal MICs
[14] = isolate 17 P. aeruginosa Derepressed AmpC
[15] = isolate 18 P. aeruginosa Derepressed AmpC

SMILES | MIC (E. faecalis; [1]) | MIC (E. faecalis; [2]) | MIC (E. faecalis; [3]) | MIC (E. cloacae; [4]) | MIC (E. cloacae; [5]) | MIC (E. cloacae; [6]) | MIC (S. aureus; [7]) | MIC (S. aureus; [8]) | MIC (S. aureus; [9]) | MIC (E. coli; isolate 5 E. coli CTX-M-15) | MIC (E. coli; isolate 6 E. coli TEM-4) | MIC (E. coli; isolate 7 E. coli SHV-12) | MIC (E. coli; isolate 8 E. coli SHV-2) | MIC (K. pneumoniae; [10]) | MIC (K. pneumoniae; isolate 10 K. pneumoniae TEM-4) | MIC (K. pneumoniae; [11]) | MIC (K. pneumoniae; [12]) | MIC (K. pneumoniae; isolate 13 K. pneumoniae KPC-3) | MIC (K. pneumoniae; isolate 14 K. pneumoniae KPC-3) | MIC (K. pneumoniae; isolate 15 K. pneumoniae KPC-2) | also measured
C[C@H]1COc2c(N3CCN(C)CC3)c(F)cc3c(=O)c(C(=O)O)cn1c23 [Levofloxacin] | 0.5 µg/mL | 1 µg/mL | 1 µg/mL | 0.03 µg/mL | 0.5 µg/mL | 0.06 µg/mL | 0.25 µg/mL | 0.12 µg/mL | 0.12 µg/mL | 16 µg/mL | 0.015 µg/mL | 0.015 µg/mL | 16 µg/mL | 0.03 µg/mL | 0.03 µg/mL | 16 µg/mL | 0.03 µg/mL | 0.06 µg/mL | 16 µg/mL | 0.06 µg/mL | MIC (P. aeruginosa; [13]): 1 µg/mL; MIC (P. aeruginosa; [14]): 8 µg/mL; MIC (P. aeruginosa; [15]): 0.12 µg/mL; MIC (P. aeruginosa; isolate 19 P. aeruginosa PER): 16 µg/mL; MIC (P. aeruginosa; isolate 20 P. aeruginosa KPC-2): 16 µg/mL; MIC (P. aeruginosa; isolate 21 P. aeruginosa KPC-2): 32 µg/mL
NC[C@H]1O[C@H](O[C@H]2[C@H](O)[C@@H](O[C@H]3O[C@H](CO)[C@@H](O)[C@H](N)[C@H]3O)[C@H](N)C[C@@H]2N)[C@H](N)C[C@@H]1O [Tobramycin] | 16 µg/mL | 16 µg/mL | 8 µg/mL | 0.25 µg/mL | 0.25 µg/mL | 0.25 µg/mL | 0.25 µg/mL | 0.5 µg/mL | 0.25 µg/mL | 64 µg/mL | 1 µg/mL | 1 µg/mL | 64 µg/mL | 0.25 µg/mL | 4 µg/mL | 0.25 µg/mL | 0.25 µg/mL | 0.25 µg/mL | 8 µg/mL | 0.12 µg/mL | MIC (E. coli; isolate 4 E. coli Basal MICs): 0.5 µg/mL; MIC (P. aeruginosa; [13]): 0.25 µg/mL; MIC (P. aeruginosa; [14]): 0.5 µg/mL; MIC (P. aeruginosa; [15]): 0.5 µg/mL; MIC (P. aeruginosa; isolate 19 P. aeruginosa PER): 1 µg/mL; MIC (P. aeruginosa; isolate 20 P. aeruginosa KPC-2): 256 µg/mL; MIC (P. aeruginosa; isolate 21 P. aeruginosa KPC-2): 8 µg/mL
